Test results from PMC4484790 (Virology, 2014).
Values belong to the molecule of their own block, whether it stands above or below them.

Columns and labels:
[1] = in vivo; parameters: species or system non-humanized mice; details: female, mouse, po, 61.5 mg/kg
[2] = PK of orally administered TFV; type: in vivo
[3] = system: HIV; details: Partners PrEP study; oral; serodiscordant couples; ref Baeten et al., 2012; cited from earlier work
[4] = system: HIV; details: hu-mice; oral administration at allometric dosing levels; ref Neff et al., 2010; cited from earlier work
[5] = female, BALB/c Rag1−/− or Rag2−/−γc−/− (humanized, Hu-HSC RAG-hu), mouse, intestinal tissue, po, 61.5 mg/kg
[6] = female, BALB/c Rag1−/− or Rag2−/−γc−/− (humanized, Hu-HSC RAG-hu), mouse, plasma, po, 61.5 mg/kg
[7] = female, BALB/c Rag1−/− or Rag2−/−γc−/− (humanized, Hu-HSC RAG-hu), mouse, rectal tissue, po, 61.5 mg/kg
[8] = female, BALB/c Rag1−/− or Rag2−/−γc−/− (humanized, Hu-HSC RAG-hu), mouse, vaginal tissue, po, 61.5 mg/kg

AUC(0-t) [1]: 17.3 µg·h/mL | Tmax [1]: 8 h | Cmax ([1]; Cmax (median)): 1.55 µg/mL | AUC(0-t) ([2]; female, BALB/c Rag1−/− or Rag2−/−γc−/− (humanized, Hu-HSC RAG-hu), mouse, in vivo, po, 61.5 mg/kg): 11.3 µg·h/mL | Cmax ([2]; female, BALB/c Rag1−/− or Rag2−/−γc−/− (humanized, Hu-HSC RAG-hu), mouse, in vivo, po, 61.5 mg/kg, Cmax (median)): 1.99 µg/mL | Tmax [2, 5]: 2 h | half-life [2, 5]: 13.9 h | Tmax [2, 6]: 2 h | half-life [2, 6]: 17 h | Tmax [2, 7]: 2 h | half-life [2, 7]: 13.5 h | Tmax [2, 8]: 2 h | half-life [2, 8]: 9 h
Molecule: C[C@H](Cn1cnc2c(N)ncnc21)OCP(=O)(O)O [TFV, Tenofovir]
reduction in HIV-1 incidence [3]: 67%

Molecule: Maraviroc [MVC]
protection against HIV vaginal challenge [4]: fully protective

AUC24h intestinal:rectal tissue ratio ([2]; hu-mice, TFV oral 61.5 mg/kg x 5 days): 2.45
Molecule: CC(Cn1cnc2c(N)ncnc21)OCP(=O)(O)OP(=O)(O)OP(=O)(O)O (stereo in doubt) [TFV-DP, Tenofovir Diphosphate]
